Test results as given in paper PMC12718081 (ACS Infectious Diseases, 2025).
Values joined by “and” are separate entries in the source; they are usually repeats but may differ in a detail not shown here. Equal entries are not always repeated. Where two headings read alike, the source gives them in different places.

Tests used:
Fh.TRPMPZQ = experiment: Ca2+ reporter (FLIPR) activation assay, Fh.TRPMPZQ in HEK293 cells; assay type: cell-based, Fasciola hepatica; conditions: at the tested concentrations, data not shown
Experimental: (§1) Finally, selectivity for Sm.TRPMPZQ was assessed by profiling responses on the F. hepatica (Fh.TRPMPZQ) and E. granulosus (Eg.TRPMPZQ) TRPMPZQ orthologs, as well as the schistosome TRPM paralog Sm.TRPMMCLZ, a distinct TRPM channel activated by meclonazepam. Meclonazepam is an anthelmintic benzodiazepine known for its toxicity to juvenile schistosome worms.
(§2) The Ca^2+ reporter assay was performed using a Fluorescence Imaging Plate Reader (FLIPR) system, as described in the Supporting Information. […]
(§3) The half-maximal inhibitory
(§4) Windows (GraphPad Software, Boston, MA, USA; www.graphpad.com). […]
(§5) with DMSO as a negative control. […]
(§6) reader. […] The fluorescence
(§7) Untransfected HEK293 cells were used as a control.
(§8) 10% fetal bovine serum (FBS). […]
(§9) atmosphere containing 5% CO₂. Following incubation, the growth medium was removed and […]
(§10) buffer containing 2.5 mM probenecid in HBSS (with Ca²⁺ and Mg²⁺), 20 mM HEPES, 0.3% BSA (Sigma, A7030), and 0.03% L-ascorbic acid (Sigma). Cells were incubated for 40 minutes at 37 °C and subsequently for 20 minutes at room temperature. A total of seven PZQ derivatives were tested, using racemic PZQ included as a positive control on each assay plate. Drug dilutions were prepared in assay buffer without dye and probenecid and dispensed into separate flat-bottom 384-well plates. Calcium flux measurements were performed at room temperature using a […]
(§11) instrument (Molecular Devices). Baseline fluorescence was recorded for 20 seconds, followed by the addition of 5 µL of each drug solution, after which fluorescence was measured continuously for 250 seconds. […]

juvenile schistosomes = experiment: Microscopy analysis of juvenile morphology and motility (viability score 0-3); conditions: 10 μM, 72 h, Table S1
[1] = system: adult schistosomes (male and female worms); experiment: Adult worm ex vivo high-content image-based motility assay; assay type: cell-based, Schistosoma mansoni
Sm.TRPMMCLZ = experiment: Ca2+ reporter (FLIPR) activation assay, Sm.TRPMMCLZ in HEK293 cells; assay type: cell-based, Schistosoma mansoni; conditions: at the tested concentrations, data not shown
Experimental: as §1, §2, §3, §4, §5, §6, §7, §8, §9, §10, §11

Eg.TRPMPZQ = Eg.TRPMPZQ (Echinococcus granulosus, UniProt W6UVV9); experiment: cell-based; conditions: HEK293, Ca2+ reporter, mean ± standard deviation; read-out: Bmax, Eg.TRPMPZQ activation
Eg.TRPMPZQ, sequence (W6UVV9 entry or part of it): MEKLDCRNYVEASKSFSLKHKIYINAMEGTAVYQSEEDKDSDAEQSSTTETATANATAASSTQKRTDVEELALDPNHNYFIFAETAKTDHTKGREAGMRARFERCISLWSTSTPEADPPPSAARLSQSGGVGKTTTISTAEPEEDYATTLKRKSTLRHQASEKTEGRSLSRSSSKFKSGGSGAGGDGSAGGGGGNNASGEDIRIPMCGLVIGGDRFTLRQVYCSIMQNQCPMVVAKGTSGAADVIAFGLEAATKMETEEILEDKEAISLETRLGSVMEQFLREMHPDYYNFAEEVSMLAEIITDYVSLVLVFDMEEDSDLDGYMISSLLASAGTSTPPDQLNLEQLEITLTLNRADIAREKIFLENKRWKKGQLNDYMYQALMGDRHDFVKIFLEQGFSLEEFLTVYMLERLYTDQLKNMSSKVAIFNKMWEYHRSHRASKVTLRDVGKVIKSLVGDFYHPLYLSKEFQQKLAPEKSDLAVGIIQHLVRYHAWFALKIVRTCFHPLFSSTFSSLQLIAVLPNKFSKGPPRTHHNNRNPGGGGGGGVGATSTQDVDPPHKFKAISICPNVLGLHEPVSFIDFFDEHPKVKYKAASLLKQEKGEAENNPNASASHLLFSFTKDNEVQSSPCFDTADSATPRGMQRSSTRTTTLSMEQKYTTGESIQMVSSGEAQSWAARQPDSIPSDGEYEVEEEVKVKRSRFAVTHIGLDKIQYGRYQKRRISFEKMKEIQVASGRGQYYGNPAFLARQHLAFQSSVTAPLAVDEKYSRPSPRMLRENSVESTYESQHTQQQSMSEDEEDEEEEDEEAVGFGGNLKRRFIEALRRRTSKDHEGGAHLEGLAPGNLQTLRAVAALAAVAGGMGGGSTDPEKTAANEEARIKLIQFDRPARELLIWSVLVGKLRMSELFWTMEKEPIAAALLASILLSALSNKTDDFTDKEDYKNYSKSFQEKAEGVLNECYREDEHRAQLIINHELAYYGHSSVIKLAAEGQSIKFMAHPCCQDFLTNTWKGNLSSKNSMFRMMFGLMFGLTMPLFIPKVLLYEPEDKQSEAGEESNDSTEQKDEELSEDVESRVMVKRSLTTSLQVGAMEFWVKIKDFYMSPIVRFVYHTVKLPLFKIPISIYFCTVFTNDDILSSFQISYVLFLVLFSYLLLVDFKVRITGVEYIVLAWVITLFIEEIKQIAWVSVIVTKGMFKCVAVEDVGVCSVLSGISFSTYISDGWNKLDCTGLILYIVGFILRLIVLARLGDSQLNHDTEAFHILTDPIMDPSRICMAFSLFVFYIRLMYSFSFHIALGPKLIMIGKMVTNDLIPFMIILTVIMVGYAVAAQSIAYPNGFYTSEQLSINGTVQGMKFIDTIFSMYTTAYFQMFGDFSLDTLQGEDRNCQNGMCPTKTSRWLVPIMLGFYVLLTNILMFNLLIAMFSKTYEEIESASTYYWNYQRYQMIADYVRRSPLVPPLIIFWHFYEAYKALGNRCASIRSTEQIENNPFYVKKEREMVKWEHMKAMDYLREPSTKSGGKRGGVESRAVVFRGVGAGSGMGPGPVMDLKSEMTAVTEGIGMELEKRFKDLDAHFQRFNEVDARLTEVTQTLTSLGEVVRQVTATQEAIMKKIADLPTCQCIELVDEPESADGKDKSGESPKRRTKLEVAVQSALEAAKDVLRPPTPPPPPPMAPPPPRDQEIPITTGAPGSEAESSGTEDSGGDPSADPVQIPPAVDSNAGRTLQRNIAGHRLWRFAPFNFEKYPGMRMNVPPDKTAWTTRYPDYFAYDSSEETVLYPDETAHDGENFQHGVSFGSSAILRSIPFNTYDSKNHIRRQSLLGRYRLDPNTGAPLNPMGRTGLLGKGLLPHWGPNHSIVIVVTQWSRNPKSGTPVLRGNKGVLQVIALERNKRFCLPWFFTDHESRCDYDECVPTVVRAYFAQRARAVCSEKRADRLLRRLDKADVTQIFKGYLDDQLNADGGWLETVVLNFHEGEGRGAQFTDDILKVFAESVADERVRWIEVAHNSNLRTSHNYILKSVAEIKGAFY

[2] = system: HepG2 hepatic epithelial cells; experiment: in vitro
Experimental: (§12) Next, we conducted a more detailed investigation by performing dose–response assays with each compound on HepG2 hepatic epithelial cells, as the liver is one of the major organs affected in intestinal schistosomiasis.
(§13) More details are provided in the Supporting Information.
(§14) Adult worm ex-vivo high-content assay
(§15) Male and female worms were placed in 96-well microplates (one worm per well) and incubated […]
(§16) to 72 hours. Brightfield timelapse images (100 images, 0.3-second intervals) were captured from each well before, immediately after, and every 24 hours following compound addition using an ImageXpress Micro Confocal High Content System equipped with a 2x objective. Image analysis was performed through a custom pipeline in CellProfiler software (v. 4.2.1, Windows OS).57 During analysis, the area of each worm and its displacement between consecutive image captures (i.e., images taken at successive time points) were measured using the parameters “Area” and “False Negative Rate” from the MeasureObjectSizeShape and MeasureObjectOverlap modules, respectively. These measurements were then modeled by a multilevel generalized linear statistical model. The effects of the experimental treatments on parasite motility were estimated with the integrated nested Laplace approximation (INLA) method, available in the INLA package of R (https://www.r-inla.org). The half-maximal inhibitory concentration (EC50) of each compound was calculated based on the worms' estimated motility using the […] 4-parameter logistic equation in GraphPad Prism version 9.0.0 for Windows (GraphPad Software, Boston, MA, USA; www.graphpad.com). […]
(§17) either at a fixed concentration (10 µM) or across a range of concentrations (0.0001–300 µM), or with DMSO as a negative control. Two hours before the end of the experiment (t0), a resazurin solution (final concentration: 0.01 mg/mL) was added to each well and the first fluorescence […]
(§18) reader. At the end of the incubation (t1), a second reading was performed. The fluorescence attributed solely to resorufin was measured by subtracting the fluorescence readings at t0 from those at t1. The results were expressed as percentual cell viability considering negative control

in vitro = conditions: human, HepG2 cytotoxicity (CC50)
Experimental: as §12, §13, §14, §15, §16, §17, §18

Sm.TRPMPZQ (wild-type) = Sm.TRPMPZQ (wild-type) (Schistosoma mansoni, UniProt A0A5K4F0X5); experiment: Ca2+ reporter (FLIPR) activation assay, wild-type Sm.TRPMPZQ in HEK293 cells; assay type: cell-based
Sm.TRPMPZQ (wild-type), sequence (A0A5K4F0X5 entry or part of it): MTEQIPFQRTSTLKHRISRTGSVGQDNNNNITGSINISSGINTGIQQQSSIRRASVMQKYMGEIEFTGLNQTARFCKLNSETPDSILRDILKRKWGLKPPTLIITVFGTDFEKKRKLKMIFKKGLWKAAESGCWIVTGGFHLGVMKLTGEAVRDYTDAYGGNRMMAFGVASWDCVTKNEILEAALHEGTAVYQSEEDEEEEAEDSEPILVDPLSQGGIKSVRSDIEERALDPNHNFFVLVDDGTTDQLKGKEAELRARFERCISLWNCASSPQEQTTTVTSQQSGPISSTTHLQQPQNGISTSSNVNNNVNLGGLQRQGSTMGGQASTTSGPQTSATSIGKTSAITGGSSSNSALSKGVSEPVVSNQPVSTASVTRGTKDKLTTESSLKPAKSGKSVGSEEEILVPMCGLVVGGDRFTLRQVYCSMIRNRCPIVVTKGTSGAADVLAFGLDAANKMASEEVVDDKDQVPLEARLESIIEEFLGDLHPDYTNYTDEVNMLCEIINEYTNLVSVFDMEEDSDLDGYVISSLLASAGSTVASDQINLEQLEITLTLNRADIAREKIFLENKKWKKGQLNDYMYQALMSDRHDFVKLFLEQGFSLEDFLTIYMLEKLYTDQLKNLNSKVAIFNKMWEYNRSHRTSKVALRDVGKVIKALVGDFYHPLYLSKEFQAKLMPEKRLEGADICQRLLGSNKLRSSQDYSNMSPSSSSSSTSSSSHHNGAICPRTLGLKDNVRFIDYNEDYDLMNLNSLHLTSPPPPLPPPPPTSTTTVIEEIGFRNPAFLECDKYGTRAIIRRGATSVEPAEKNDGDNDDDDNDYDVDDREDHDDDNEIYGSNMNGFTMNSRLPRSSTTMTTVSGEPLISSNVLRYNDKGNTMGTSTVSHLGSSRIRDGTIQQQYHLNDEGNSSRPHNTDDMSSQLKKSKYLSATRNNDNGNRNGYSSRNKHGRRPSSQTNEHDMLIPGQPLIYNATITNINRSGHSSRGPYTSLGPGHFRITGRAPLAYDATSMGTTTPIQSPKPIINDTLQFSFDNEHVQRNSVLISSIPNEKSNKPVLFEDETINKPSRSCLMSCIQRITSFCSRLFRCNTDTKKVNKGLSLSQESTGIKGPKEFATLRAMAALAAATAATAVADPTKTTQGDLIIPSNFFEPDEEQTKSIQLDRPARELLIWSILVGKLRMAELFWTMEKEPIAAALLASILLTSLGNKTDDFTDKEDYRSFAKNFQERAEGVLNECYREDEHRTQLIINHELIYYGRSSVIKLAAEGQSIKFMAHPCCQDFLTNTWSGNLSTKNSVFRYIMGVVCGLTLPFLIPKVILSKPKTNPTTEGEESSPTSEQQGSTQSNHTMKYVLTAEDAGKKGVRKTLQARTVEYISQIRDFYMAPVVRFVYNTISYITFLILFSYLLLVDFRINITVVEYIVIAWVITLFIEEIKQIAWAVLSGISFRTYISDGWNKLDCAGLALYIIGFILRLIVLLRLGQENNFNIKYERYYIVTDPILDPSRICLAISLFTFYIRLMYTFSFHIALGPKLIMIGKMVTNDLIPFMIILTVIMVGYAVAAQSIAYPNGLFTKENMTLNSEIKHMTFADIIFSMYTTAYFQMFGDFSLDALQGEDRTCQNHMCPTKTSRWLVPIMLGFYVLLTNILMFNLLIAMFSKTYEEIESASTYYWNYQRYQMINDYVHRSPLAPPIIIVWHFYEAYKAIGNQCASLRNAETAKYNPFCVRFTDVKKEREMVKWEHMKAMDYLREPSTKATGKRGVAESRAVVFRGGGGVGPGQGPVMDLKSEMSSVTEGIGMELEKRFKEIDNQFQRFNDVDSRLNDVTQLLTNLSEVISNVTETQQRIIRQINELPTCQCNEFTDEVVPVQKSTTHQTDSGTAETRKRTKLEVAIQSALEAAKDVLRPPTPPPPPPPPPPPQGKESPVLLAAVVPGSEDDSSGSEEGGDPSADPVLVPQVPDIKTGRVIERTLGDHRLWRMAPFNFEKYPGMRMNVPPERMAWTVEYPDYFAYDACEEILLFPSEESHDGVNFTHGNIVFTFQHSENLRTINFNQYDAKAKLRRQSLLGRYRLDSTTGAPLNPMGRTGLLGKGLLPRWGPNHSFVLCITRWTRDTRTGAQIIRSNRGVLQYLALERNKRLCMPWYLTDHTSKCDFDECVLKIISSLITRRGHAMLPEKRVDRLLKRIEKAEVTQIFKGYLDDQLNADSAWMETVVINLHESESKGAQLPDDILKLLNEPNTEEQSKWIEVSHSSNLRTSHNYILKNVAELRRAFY
How it was run: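 Wild-type Sm.TRPMPZQ in HEK293 cells, with untransfected HEK293 as control. Cells dye-loaded in HBSS/20 mM HEPES buffer with 2.5 mM probenecid, 0.3% BSA and 0.03% ascorbic acid (40 min 37 °C, then 20 min RT). FLIPR Ca²⁺ flux at room temperature: 20 s baseline, then drug addition, then 250 s recording.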

O=C(C1CCCCC1)N1CC(=O)N2CCc3ccc([N+](=O)[O-])cc3C2C1 (centres unmarked) [Compound 2, 9-NO2–PZQ]
activation of Fh.TRPMPZQ (Fh.TRPMPZQ): did not activate | number of juvenile worms with viability score 0 (juvenile schistosomes): 70 | number of juvenile worms with viability score 1 (juvenile schistosomes): 3 | number of juvenile worms with viability score 2 (juvenile schistosomes): 7 | number of juvenile worms with viability score 3 (juvenile schistosomes): 74 | EC50 ([1]; Schistosoma mansoni, 0 h, female adult worms, 0 h (immediately after addition), single experiment or geometric mean, read-out: Female worm motility inhibition (EC50)): 27.7 µM | EC50 ([1]; Schistosoma mansoni, 0 h, male adult worms, 0 h (immediately after addition), single experiment or geometric mean, read-out: Male worm motility inhibition (EC50)): 10.7 µM | EC50 ([1]; Schistosoma mansoni, 0 h, male, 0 h, individual experiments, read-out: Male worm motility inhibition (EC50), values of independent experiments): 10 µM | EC50 ([1]; Schistosoma mansoni, 24 h, female adult worms, 24 h, single experiment or geometric mean, read-out: Female worm motility inhibition (EC50)): 28.8 µM | EC50 ([1]; Schistosoma mansoni, 24 h, male adult worms, 24 h, single experiment or geometric mean, read-out: Male worm motility inhibition (EC50)): 14.3 µM | EC50 ([1]; Schistosoma mansoni, 24 h, male, 24 h, individual experiments, read-out: Male worm motility inhibition (EC50), values of independent experiments): 10.3 µM | EC50 ([1]; Schistosoma mansoni, 48 h, female adult worms, 48 h, single experiment or geometric mean, read-out: Female worm motility inhibition (EC50)): 29.1 µM | EC50 ([1]; Schistosoma mansoni, 48 h, male adult worms, 48 h, single experiment or geometric mean, read-out: Male worm motility inhibition (EC50)): 15.9 µM | EC50 ([1]; Schistosoma mansoni, 48 h, male, 48 h, individual experiments, read-out: Male worm motility inhibition (EC50), values of independent experiments): 11.6 µM | EC50 ([1]; Schistosoma mansoni, 72 h, female adult worms, 72 h, single experiment or geometric mean, read-out: Female worm motility inhibition (EC50)): 30 µM | EC50 ([1]; Schistosoma mansoni, 72 h, male adult worms, 72 h, single experiment or geometric mean, read-out: Male worm motility inhibition (EC50)): 15.4 µM | EC50 ([1]; Schistosoma mansoni, 72 h, male, 72 h, individual experiments, read-out: Male worm motility inhibition (EC50), values of independent experiments): 11.9 µM | EC50 ([1]; female adult worms, 0 h (immediately after addition), single experiment or geometric mean, read-out: Female worm motility inhibition (EC50)): 27.7 µM | EC50 ([1]; female adult worms, 24 h, single experiment or geometric mean, read-out: Female worm motility inhibition (EC50)): 29 µM | EC50 ([1]; female adult worms, 48 h, single experiment or geometric mean, read-out: Female worm motility inhibition (EC50)): 29 µM | EC50 ([1]; male adult worms, 0 h (immediately after addition), single experiment or geometric mean, read-out: Male worm motility inhibition (EC50)): 11 µM | EC50 ([1]; male adult worms, 24 h, single experiment or geometric mean, read-out: Male worm motility inhibition (EC50)): 14 µM | EC50 ([1]; male adult worms, 48 h, single experiment or geometric mean, read-out: Male worm motility inhibition (EC50)): 16 µM | EC50 ([1]; male adult worms, 72 h, single experiment or geometric mean, read-out: Male worm motility inhibition (EC50)): 15 µM | EC50 ([1]; male, 24 h, individual experiments, read-out: Male worm motility inhibition (EC50), values of independent experiments): 19.8 µM | EC50 ([1]; male, 48 h, individual experiments, read-out: Male worm motility inhibition (EC50), values of independent experiments): 21.7 µM | EC50 ([1]; male, 72 h, individual experiments, read-out: Male worm motility inhibition (EC50), values of independent experiments): 19.9 µM | activation of Sm.TRPMMCLZ (Sm.TRPMMCLZ): did not activate | Emax (Eg.TRPMPZQ): 114 ± 10.5% | Selectivity Index (CC50/EC50), Female ([2]; HepG2 CC50 / female worm motility EC50, 48 h): 12.7 and 13 | Selectivity Index (CC50/EC50), Male ([2]; HepG2 CC50 / male worm motility EC50, 48 h): 23.1 and 23 | CC50 at 48 h (in vitro): 368 µM | CC50 at 48 h (in vitro; values of independent experiments): 354 µM | EC50 (Sm.TRPMPZQ (wild-type); 0.001 to 100 μM): 13.5 ± 0.49 µM | Emax (Sm.TRPMPZQ (wild-type); read-out: Bmax, wild-type Sm.TRPMPZQ activation): 66.6 ± 1.98%
